The source of these data is patent publication US9000031B2, “Thioxanthone-based autophagy inhibitor therapies to treat cancer” (Spectrum Pharmaceuticals, Inc., priority 2010, dated 2015).

pIC50: −log10 of the molar value.

Test [1] concerns breast cancer cell lines. Description: Apoptosis by PI staining and FACS analysis of sub-G0/G1 DNA content. The format is cell-based. Here is the method:
(§1) Cells from the breast cancer cell lines MDA-MB-231, BT-474, SKBR-3, and BT-20 were seeded into 96-well microculture plates at 10,000 cells per well and allowed to attach for 24 hours. Cells were then treated with 10 μM Lucanthone for 72 hours (48 hours for apoptosis assay). For immunoblotting, cells were harvested after treatment and cathepsin D levels were determined as described above. Pro-apoptotic effects following in vitro drug exposure were quantified by propidium iodide (PI) staining and fluorescence-activated cell sorting (FACS) analysis of sub-G0/G1 DNA content. Data is representative of three independent experiments.
Cells from the breast cancer cell lines MDA-MB-231, BT-474, SKBR-3, and BT-20 were seeded into 96-well microculture plates at 10,000 cells per well and allowed to attach for 24 hours. For immunoblotting, cells were then treated with 10 μM Lucanthone, 2.5 μM Vorinostat, or the combination for 72 hours, harvested, and cathepsin D levels were determined as described above. For the MTT cell viability assay, the cells were then treated with 10 μM Lucanthone, 2.5 μM Vorinostat, or the combination for 72 hours. After treatment, 3-(4,5-dimethylthiazol-2-yl)-2,5, diphenyltetrazolium bromide (MTT) was added after treatment and cell viability was quantified using a BioTek (Winooski, Vt.) microplate reader. […] Pro-apoptotic effects following in vitro drug exposure were quantified by propidium iodide (PI) staining and fluorescence-activated cell sorting (FACS) analysis of sub-G0/G1 DNA content. […]
Cells from the breast cancer cell lines MDA-MB-231 and BT-20 were seeded into 96-well microculture plates at 10,000 cells per well and allowed to attach for 24 hours. […] After treatment, 3-(4,5-dimethylthiazol-2-yl)-2,5, diphenyltetrazolium bromide (MTT) was added after treatment and cell viability was quantified using a BioTek (Winooski, Vt.) microplate reader. […] Pro-apoptotic effects following in vitro drug exposure were quantified by propidium iodide (PI) staining and fluorescence-activated cell sorting (FACS) analysis of sub-G0/G1 DNA content. […]
(In flow cytometry, cells or beads pass a laser one at a time.)

Another test deals with LC3-II, SQSTM1/p62. Nature of the test: LC3-II formation and SQSTM1/p62 accumulation with Bafilomycin A1 (FIG. 1F). The format is cell-based.
In test [2] the test system is MDA-MB-231 breast cancer cell line. Description: Vacuolization by Giemsa staining and transmission electron microscopy. The format is cell-based. As to conditions: MDA-MB-231 cells, 48 hours; for accumulation of electron dense particles: 10 μM Lucanthone or 50 μM Chloroquine, transmission electron microscopy. Here is the method:
Increased vacuolization was visualized by Giemsa staining and transition electron microscopy. […] After drug treatment, cells were washed with PBS and fixed in methanol for 5 minutes. Cells were then incubated for 1 hour in Giemsa stain diluted 1:20 with deionized water. Cells were rinsed with water and imaged using an Olympus fluorescent microscope. Image-Pro Plus software Version 6.2.1 was used for image acquisition. Transmission electron microscopy of cells was performed using routine procedures. Sections were cut in an LKB Ultracut microtome (Leica, Deerfield, Ill.), stained with uranyl acetate and lead citrate, and examined in a JEM 1230 transmission electron microscope (JEOL, USA, Inc., Peabody, Mass.). Images were captured using the AMT Imaging System (Advanced Microscopy Techniques Corp, Danvers, Mass.).

Test [3] has the same test system. Description: Lysosomal membrane permeabilization by loss of acridine orange fluorescence. As to conditions: MDA-MB-231 cells, 10 μM Lucanthone or 50 μM Chloroquine, 48 hours. The format is cell-based. Here is the method:
The appearance of LMP was monitored by loss of acridine orange fluorescence. Acidic lysosomes were visualized by acridine orange staining. […] Cells were washed with PBS and images were captured using an Olympus fluorescent microscope. Based on the acidity, lysosomes appeared as orange fluorescent cytoplasmic vesicles. Quantification of 5 random fields of acridine orange intensity was measured by immunofluorescence and image acquisition were performed using Image-Pro Plus software Version 6.2.1.

The test system of test [4] is breast cancer cell lines. Nature of the test: Cell viability by MTT assay in breast cancer cell lines. Format: cell-based. As to conditions: for pIC50: 72 h, read-out: mean IC50, breast cancer cell viability.
From the text: (§2) Data is representative of three independent experiments.
as §2, §2
A general note: Formazan colour is commonly taken as a measure of viable cells.

In another test the test system is LC3-II. Nature of the test: Accumulation of LC3-II by immunocytochemistry. Format: cell-based. To be noted: MDA-MB-231 cells, 10 μM Lucanthone, 48 hours. Here is the method: Accumulation of LC3-II was visualized by immunocytochemistry. Cells from a MDA-MB-231 breast cancer cell line were plated on chamber slides and allowed to attach overnight. […] Following drug treatment, cells were fixed with 4% paraformaldehyde, permeabilized using 0.2% TRITON-X-100, and incubated overnight with indicated primary antibodies. Alexa Fluor 488 conjugated fluorescent secondary antibodies were used to visualize protein localization. Images were captured using an Olympus fluorescent microscope (Center Valley, P A) with a DP71 camera and a 60× objective. Image-Pro Plus software Version 6.2.1 (MediaCybernetics, Bethesda, Md.) was used for image acquisition.

Another test has as its system SQSTMI/p62. Description: SQSTMI/p62 levels and aggregation by immunoblotting and immunocytochemistry. Format: cell-based. As to conditions: MDA-MB-231 cells. Here is the method: This protein is degraded by autophagy, localized to cellular inclusion bodies, and has been proposed to play a role in facilitating protein aggregate clearance by autophagy. As such, a disruption of this process would result in the accumulation of SQSTMI/p62.
(§3) Levels and aggregation of SQSTMI/p62 were determined by immunoblotting and immunocytochemistry, respectively. […] Cells were harvested and were then lysed using routine procedures. Approximately 50 μg of total cellular protein from each sample were subjected to SDS-PAGE, proteins were transferred to nitrocellulose membranes, and the membranes were blocked with 5% nonfat milk in a Tris-buffered saline solution containing 0.1% TWEEN-20 for 1 hour. The blots were then probed overnight at 4° C. with primary antibodies, washed, and probed with species-specific secondary antibodies coupled to horseradish peroxidase. Immunoreactive material was detected by enhanced chemiluminescence (West Pico, Pierce, Inc., Rockville, Ill.).

Test [5] deals with MDA-MB-231 and BT-20 breast cancer cell lines. Description: Affymetrix expression arrays. The format is cell-based, human. As to conditions: MDA-MB-231 and BT-20 cells, 10 μM Lucanthone, 48 hours. Here is the method:
To further characterize the effects of Lucanthone on breast cancer cells, expression profiling was performed on breast cancer cell lines. Cells from a MDA-MB-231 and a BT-20 breast cancer cell line were treated with 10 μM Lucanthone for 48 hours. Total RNA was isolated using the RNeasy Plus Mini Kit (Qiagen, Germantown, Md.) and treated with TURBO DNA-Free™ Kit (Applied Biosystems, Foster City, Calif.). 300 ng of total RNA per sample was amplified and hybridized to […]® Human Gene 1.0 ST arrays (Affymetrix, Inc., Santa Clara, Calif.) according to the manufacturer's instructions. These arrays assay for the expression of about 28,869 well-annotated genes with 764,885 distinct probes. Affymetrix CEL files were imported into PARTEK® Genomics Suite™ 6.4 (Partek Inc., St. Louis, Mo.) using the default Partek normalization parameters and the robust multi-array average (RMA) analysis adjusted for probe sequence and GC content (GC-RMA). Data normalization was performed across all arrays using quantile normalization.

Test [6] relates to cathepsin D. Description: Quantitative real-time PCR analysis of cathepsin D. The format is cell-based. To be noted: MDA-MB-231 and BT-20 cells, 10 μM Lucanthone, 48 hours, standardized to GAPDH. Here is the method: The lysosomal protease cathepsin D is a key mediator of apoptosis and its release into the cytosol has been reported to promote cell death. Considering this, we further evaluated the role of cathepsin D during Lucanthone-mediated cell death using quantitative real-time PCR (qRT-PCR). To perform qRT-PCR, cells from a MDA-MB-231 or a BT-20 cell lines were treated with 10 μM Lucanthone for 48 hours and then harvested for analysis. Total RNA was isolated using the RNeasy Plus Mini Kit (Qiagen, Germantown, Md.) and treated with TURBO DNAfree™ Kit (Applied Biosystems, Foster City, Calif.). First-strand cDNA synthesis was performed from 1 μg RNA in a 20 μL reaction mixture using the high-capacity cDNA Reverse Transcription Kit (Applied Biosystems, Foster City, Calif.). Cathepsin D and GAPDH transcripts were amplified using commercially available TaqMan@Gene expression assays (Applied Biosystems, Foster City, Calif.). Levels of mRNAs were standardized to the expression of GAPDH and relative gene expression was calculated with the 2^−ΔCt method.
Background: Real-time PCR tracks product formation cycle by cycle.

Test [7] has as its system cathepsin D. Nature of the test: Cathepsin D protein levels and aggregation by immunocytochemistry. Format: cell-based. To be noted: immunocytochemistry (FIG. 3C).
The subject of test [8] is cathepsin D. Description: Cathepsin D expression by immunoblotting in breast cancer cell lines. Format: cell-based. To be noted: MDA-MB-231, BT-474, SKBR-3, BT-20 cells, 10 μM Lucanthone, 72 hours. Here is the method:
as §3
as §1, with “experiments. […]” for “experiments.”

Test [9] deals with MDA-MB-231 breast cancer cell line. Nature of the test: Lucanthone-induced apoptosis after cathepsin D siRNA knockdown. Format: cell-based. To be noted: MDA-MB-231 cells, 100 nM cathepsin D siRNA vs non-target siRNA, 10 μM Lucanthone, 48 hours. Here is the method: To further establish the mechanistic role of cathepsin D in Lucanthone-induced apoptosis, siRNA was used to knockdown its expression (FIG. 4C). Preparation of siRNAs Cahepsin D and non-target SMARTpool siRNA were obtained from Dharmacon (Lafayette, Colo.). Cells from a MDA-MB-231 breast cancer cell line were transfected with 100 nM of either non-target or cathepsin D siRNA using Oligofectamine (Invitrogen, Carlsbad, Calif.) according to the manufacturers protocol. Transfected cells were incubated at 37° C. for 24 hours and then treated with 10 μM Lucanthone for 48 hours. Efficiency of RNAi was measured at 48 hours by immunoblotting using an α-cathepsin D antibody. Apoptosis was determined by PI staining and flow cytometry.

The subject of test [10] is cathepsin D. Description: Cathepsin D accumulation in isogenic HCT116 p53 cell lines. To be noted: HCT116 p53+1^+ and p53−1^− cell lines. The format is cell-based. The source says:
(§4) Loss of function of p53 is a frequent event in human cancer that is associated with tumorigenesis and drug resistance. […] To investigated the role of p53 in Lucanthone-mediated cell death, […]

The subject of test [11] is HCT116 colorectal cancer cell lines. Description: Cell viability in isogenic HCT116 p53 cell lines. Format: cell-based. As to conditions: HCT116 p53+1^+ and p53−1^− cell lines.
From the text: as §4

Setting [12] is: breast cancer cell lines, FIG. 1G.

Regarding `CO/C1=C\C(C)=C\[C@@H](C)[C@@H](O)[C@@H](C)C/C(C)=C/C=C/[C@H](OC)[C@@H]([C@@H](C)[C@@H](O)[C@H](C)[C@@]2(O)C[C@@H](O)[C@H](C)[C@@H](C(C)C)O2)OC1=O` [Bafilomycin A1], the apoptosis result with breast cancer cell lines [1] (setting [12]) is listed as “induce apoptosis in breast cancer cell lines”. For the same molecule, in the test with LC3-II, SQSTM1/p62, the LC3-II formation result is recorded as “induce LC3-II formation” and the SQSTM1/p62 accumulation result is listed as “SQSTM1/p62 accumulation”.
As usually defined, the pIC50 is −log10 of the IC50, conventionally taken in molar units. As for `CCN(CC)CCCC(C)Nc1ccnc2cc(Cl)ccc12` (stereo not shown) [Chloroquine], the “accumulation of electron dense particles” value in [2] is reported as “induced an accumulation of electron dense particles”. Besides, the “acridine orange staining intensity of lysosomes (lysosomal acidity)” value in [3] is listed as “loss of lysosomal acidity”. Moreover, in the test on breast cancer cell lines [4], the negative logarithm of the IC50 (pIC50) was 4.18.
As for `CCN(CC)CCNc1ccc(C)c2sc3ccccc3c(=O)c12` [Lucanthone, 1-((2-(Diethylamino)ethyl)amino)-4-methylthioxanthen-9-one], the “lipid modification of LC3 into LC3-II (punctate localization to autophagosomes)” value in the test on LC3-II is “induced lipid modification of LC3-1 into LC3-II”. Besides, the “accumulation of electron dense particles” value in test [2] was “induced an accumulation of electron dense particles”. Moreover, in test [2] (10 μM Lucanthone, Giemsa staining), the cytoplasmic vacuolization result is “induced cytoplasmic vacuolization”. Also, the “acridine orange staining intensity of lysosomes (lysosomal acidity)” value in test [3] is listed as “decreased the red staining intensity of lysosomes”. In addition, the SQSTMI/p62 levels result with SQSTMI/p62 (10 μM Lucanthone, 48 hours, immunoblotting) is “strongly increased”. Moreover, in the test with SQSTMI/p62 (immunocytochemistry), the SQSTMI/p62 aggregation result is given as “aggregated in response to Lucanthone”. Further, the pIC50 in the test with breast cancer cell lines [4] was 5.14. Also, the cell viability result in the test on breast cancer cell lines [4] (panel of seven breast cancer cell lines, varying concentrations, 72 hours, MTT) is “reduced cell viability to a similar extent in a panel of seven breast cancer cell lines”; in test [11] it was “reduced viability to a similar extent”. Further, the “genes induced: cathepsin D (CTSD), MMPI, CYPIAI (upregulated by at least 4-fold)” value in test [5] is listed as “increased in both cell lines”. Also, the “cathepsin D mRNA levels (qRT-PCR)” value in the test with cathepsin D [6] is “induced a significant increase in cathepsin D levels in both cell lines”. Moreover, the “cathepsin D protein levels and cytosolic aggregation” value in the test with cathepsin D [7] was “dramatically increased cathepsin D protein levels and promoted its cytosolic aggregation”. The “cathepsin D levels” value in the test on cathepsin D [8] is “strongly increased”. The apoptosis result in the test on breast cancer cell lines [1] (MDA-MB-231, BT-474, SKBR-3, BT-20 cells, 10 μM Lucanthone, 48 hours, PI-FACS) was “induces apoptosis in four different breast cancer cell lines”; in the test with breast cancer cell lines [1] (setting [12]), “induce apoptosis in breast cancer cell lines”. For the same molecule, the “sensitivity to Lucanthone-mediated apoptosis of cells with reduced cathepsin D levels” value in test [9] is given as “significantly less sensitive”. In addition, in the test on cathepsin D [10], the “cathepsin D accumulation” value is reported as “induced cathepsin D accumulation equally regardless of p53 status”. Besides, in the test on LC3-II, SQSTM1/p62, the LC3-II formation result was “induce LC3-II formation”. Besides, the SQSTM1/p62 accumulation entry in the test with LC3-II, SQSTM1/p62 is “SQSTM1/p62 accumulation”.
